Laboratory results as given in patent US6407103B2, “Indeno [1,2-c] pyrazol-4-ones and their uses” (Bristol-Myers Squibb Pharma Company, priority 1998, dated 2002).
Structures can show the parent of a compound that is named as a salt.

Question: With CN(C)[C@@H]1CCN(C(=O)c2ccc(-c3[nH]nc4c3C(=O)c3c(NC(=O)NN5CCOCC5)cccc3-4)s2)C1 (as salt: TFA) [Example CLXXXI, 3-(5-(3(R)-(N,N-dimethylamino)pyrrolidinocarbonyl)-2-thienyl)-5-(morpholinocarbamoylamino)indeno[1,2-c]pyrazol-4-one] as the molecule, how does the melting point read?
Answer: 265 °C

Question: Which melting point does the source give for CN(C)[C@H]1CCN(C(=O)c2ccc(-c3[nH]nc4c3C(=O)c3c(NC(=O)NN5CCOCC5)cccc3-4)s2)C1 (as salt: TFA) [Example CLXXXII, 3-(5-(3(S)-(N,N-dimethylamino)pyrrolidinocarbonyl)-2-thienyl)-5-(morpholinocarbamoylamino)indeno[1,2-c]pyrazol-4-one] here?
Answer: 264 °C

Question: With CN1CCC(CNC(=O)c2ccc(-c3[nH]nc4c3C(=O)c3c(NC(=O)NN5CCOCC5)cccc3-4)s2)C1 (stereo not drawn) (as salt: TFA) [Example CLXXXIII, 3-(5-((1-methylpyrrolidin-3-yl)methylaminocarbonyl)-2-thienyl)-5-(morpholinocarbamoylamino)indeno[1,2-c]pyrazol-4-one] as the molecule, how does the melting point read?
Answer: 151 °C

Question: For O=C(Nc1cccc2c1C(=O)c1c-2n[nH]c1-c1ccc(C(=O)N2CCC[C@@H]2CN2CCCC2)s1)NN1CCOCC1 (as salt: TFA) [Example CLXXXIV, 3-(5-(2(R)-(pyrrolidinomethyl)pyrrolidinocarbonyl)-2-thienyl)-5-(morpholinocarbamoylamino)indeno[1,2-c]pyrazol-4-one], which melting point is on record?
Answer: 166 °C

Question: With O=C(Nc1cccc2c1C(=O)c1c-2n[nH]c1-c1ccc(C(=O)N2CCC[C@H]2CO)s1)NN1CCOCC1 (as salt: TFA) [Example CLXXXV, 3-(5-(2(S)-(hydroxymethyl)pyrrolidinocarbonyl)-2-thienyl)-5-(morpholinocarbamoylamino)indeno[1,2-c]pyrazol-4-one] as the molecule, how does the melting point read?
Answer: 267 °C

Question: For COC[C@H]1CCCN1C(=O)c1ccc(-c2[nH]nc3c2C(=O)c2c(NC(=O)NN4CCOCC4)cccc2-3)s1 (as salt: TFA) [Example CLXXXVI, 3-(5-(2(R)-(methoxymethyl)pyrrolidinocarbonyl)-2-thienyl)-5-(morpholinocarbamoylamino)indeno[1,2-c]pyrazol-4-one], which melting point is on record?
Answer: 262 °C

Question: With O=C(Nc1cccc2c1C(=O)c1c-2n[nH]c1-c1ccc(C(=O)N2CCC[C@H]2CNc2ccccc2)s1)NN1CCOCC1 (as salt: TFA) [Example CLXXXVII, 3-(5-(2(S)-(phenylaminomethyl)pyrrolidinocarbonyl)-2-thienyl)-5-(morpholinocarbamoylamino)indeno[1,2-c]pyrazol-4-one] as the molecule, how does the melting point read?
Answer: > 300 °C

Question: For COC[C@H]1CCCN1NC(=O)c1ccc(-c2[nH]nc3c2C(=O)c2c(NC(=O)NN4CCOCC4)cccc2-3)s1 (as salt: TFA) [Example CLXXXVIII, 3-(5-(2(R)-(methoxymethyl)pyrrolidinoaminocarbonyl)-2-thienyl)-5-(morpholinocarbamoylamino)indeno[1,2-c]pyrazol-4-one], which melting point is on record?
Answer: 266 °C

Question: With CNc1ccc(NC(=O)c2ccc(-c3[nH]nc4c3C(=O)c3c(NC(=O)NN5CCOCC5)cccc3-4)s2)cc1 (as salt: TFA) [Example CXCVI, 3-(5-((4-methylaminophenyl)aminocarbonyl)-2-thienyl)-5-(morpholinocarbamoylamino)indeno[1,2-c]pyrazol-4-one] as the molecule, how does the melting point read?
Answer: 230 °C

Question: With CC(=O)Nc1ccc(NC(=O)c2ccc(-c3[nH]nc4c3C(=O)c3c(NC(=O)NN5CCOCC5)cccc3-4)s2)cc1 (as salt: TFA) [Example CXCVII, 3-(5-((4-acetamidophenyl)aminocarbonyl)-2-thienyl)-5-(morpholinocarbamoylamino)indeno[1,2-c]pyrazol-4-one] as the molecule, how does the melting point read?
Answer: 253 °C

Question: For CCN(CC)c1ccc(NC(=O)c2ccc(-c3[nH]nc4c3C(=O)c3c(NC(=O)NN5CCOCC5)cccc3-4)s2)cc1 (as salt: TFA) [Example CXCVIII, 3-(5-(4-(diethylamino)phenylaminocarbonyl)-2-thienyl)-5-(morpholinocarbamoylamino)indeno[1,2-c]pyrazol-4-one], which melting point is on record?
Answer: 198 °C

Question: With O=C(Nc1cccc2c1C(=O)c1c-2n[nH]c1-c1ccc(C(=O)N2CCNCC2)s1)NN1CCOCC1 (as salt: TFA) [Example CXLIX, 3-(5-piperazinocarbonyl-2-thienyl)-5-(morpholinocarbamoylamino)indeno [1,2-c]pyrazol-4-one] as the molecule, how does the melting point read?
Answer: 241 °C

Question: With O=C(Nc1cccc2c1C(=O)c1c-2n[nH]c1-c1ccc(C(=O)NN2CCCC2)s1)NN1CCOCC1 (as salt: TFA) [Example CXLVI, 3-(5-pyrrolidinoaminocarbonyl-2-thienyl)-5-(morpholinocarbamoylamino)indeno [1,2-c]pyrazol-4-one] as the molecule, how does the melting point read?
Answer: 213 °C

Question: For O=C(Nc1cccc2c1C(=O)c1c-2n[nH]c1-c1ccc(C(=O)NN2CCCCC2)s1)NN1CCOCC1 (as salt: TFA) [Example CXLVII, 3-(5-piperidinoaminocarbonyl-2-thienyl)-5-(morpholinocarbamoylamino)indeno [1,2-c]pyrazol-4-one], which melting point is on record?
Answer: 189 °C

Question: For COc1ccc(-c2[nH]nc3c2C(=O)c2c(NC(=O)Cc4ccc5c(c4)OCO5)cccc2-3)cc1 (hydrate or solvate) [Example XVII, 3-(4-methoxyphenyl)-5-((3,4-methylenedioxyphenyl)acetamido)indeno[1,2-c]pyrazol-4-one], which melting point is on record?
Answer: 297 °C

Question: Which melting point does the source give for COc1ccc(-c2[nH]nc3c2C(=O)c2c(NC(=O)N[C@@H]4CCCC[C@@H]4N)cccc2-3)cc1 (relative stereo) [Example LXVII, 3-(4-methoxyphenyl)-5-((cis-2-aminocyclohexylcarbamoyl)amino)indeno[1,2-c]pyrazol-4-one] here?
Answer: > 300 °C

Question: Which melting point does the source give for NC(=O)Nc1cccc2c1C(=O)c1c-2n[nH]c1-c1ccsc1 [Example C, 3-(3-thienyl)-5-(carbamoylamino)indeno[1,2-c]pyrazol-4-one] here?
Answer: > 280 °C

Question: With Cn1ccc(-c2[nH]nc3c2C(=O)c2c(NC(=O)NN4CCOCC4)cccc2-3)c1 [Example CC, 3-(1-methyl-3-pyrrolyl)-5-(morpholinocarbamoylamino)indeno[1,2-c]pyrazol-4-one] as the molecule, how does the melting point read?
Answer: 301 °C

Question: With CCOC(=O)c1ccc(-c2[nH]nc3c2C(=O)c2c(NC(=O)NN4CCC[C@@H]4COC)cccc2-3)s1 [Example CCI, 3-(5-carboethoxy-2-thienyl)-5-(2 (R)-(methoxymethyl)pyrrolidinocarbamoylamino)indeno[1,2-c]pyrazol-4-one] as the molecule, how does the melting point read?
Answer: 221 °C

Question: For CC(C)(C)OC(=O)NCCCC(=O)N1CCC(c2[nH]nc3c2C(=O)c2c(NC(=O)NN4CCOCC4)cccc2-3)CC1 [Example CCLXXVI, 3-(1-(3-(t-butoxycarbonylamino)propylcarbonyl)piperidin-4-yl)-5-(morpholinocarbamoylamino)indeno[1,2-c]pyrazol-4-one], which melting point is on record?
Answer: 73 °C

Question: Which melting point does the source give for CC(C)(C)OC(=O)N1CCC(C(=O)N2CCC(c3[nH]nc4c3C(=O)c3c(NC(=O)NN5CCOCC5)cccc3-4)CC2)CC1 [Example CCLXXXI, 3-(1-((1-(t-butoxycarbonyl)piperidin-4-yl)carbonyl)piperidin-4-yl)-5-(morpholinocarbamoylamino)indeno[1,2-c]pyrazol-4-one] here?
Answer: 220 °C
